Experimental data taken from the supplement of paper PMC10307832.

Columns and labels:
Assay in all cases: relative viability (nuclei count vs DMSO), 5 days (fraction); higher = more cells survive
BI-D1870 + Bortezomib = compound: CC(C)CCN1c2nc(Nc3cc(F)c(O)c(F)c3)ncc2N(C)C(=O)C1C [BI-D1870] + CC(C)C[C@H](NC(=O)[C@H](Cc1ccccc1)NC(=O)c1cnccn1)B(O)O [Bortezomib] (partner 0.002 µM)
Method in brief: (§1)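 One day after seeding in 1536-well plates, lung cancer cell lines were dosed by pin tool. Dosing was either single-drug or a fixed anchor-drug dose plus five library-drug doses (not always all listed) in √10 steps. After 5 days, nuclei were stained in one fix-and-stain step and counted on 4× images, and relative viability is the nuclei count of treated wells over that of vehicle wells, given as the median of duplicate plates.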

BI-D1870 + Luminespib = compound: CC(C)CCN1c2nc(Nc3cc(F)c(O)c(F)c3)ncc2N(C)C(=O)C1C [BI-D1870] + CCNC(=O)c1noc(-c2cc(C(C)C)c(O)cc2O)c1-c1ccc(CN2CCOCC2)cc1 [Luminespib] (partner 0.01 µM)
Method in brief: as §1

BI-D1870 + Olaparib = compound: CC(C)CCN1c2nc(Nc3cc(F)c(O)c(F)c3)ncc2N(C)C(=O)C1C [BI-D1870] + O=C(c1cc(Cc2n[nH]c(=O)c3ccccc23)ccc1F)N1CCN(C(=O)C2CC2)CC1 [Olaparib] (partner 8 µM)
Method in brief: as §1

Zebularine + Crizotinib = compound: O=c1ncccn1[C@@H]1O[C@H](CO)[C@@H](O)[C@H]1O [Zebularine] + C[C@@H](Oc1cc(-c2cnn(C3CCNCC3)c2)cnc1N)c1c(Cl)ccc(F)c1Cl [Crizotinib] (partner 1 µM)
Method in brief: as §1

## UMC-11
BI-D1870 + Bortezomib; first compound 0.04 µM
  relative viability: 0.788
BI-D1870 + Bortezomib; first compound 0.1265 µM
  relative viability: 0.647
BI-D1870 + Bortezomib; first compound 0.4 µM
  relative viability: 0.561
BI-D1870 + Bortezomib; first compound 1.265 µM
  relative viability: 0.712
BI-D1870 + Bortezomib; first compound 4 µM
  relative viability: 0.553
BI-D1870 + Luminespib; first compound 0.04 µM
  relative viability: 1.06
BI-D1870 + Luminespib; first compound 0.1265 µM
  relative viability: 1.05
BI-D1870 + Luminespib; first compound 0.4 µM
  relative viability: 0.939
BI-D1870 + Luminespib; first compound 1.265 µM
  relative viability: 1.08
BI-D1870 + Luminespib; first compound 4 µM
  relative viability: 0.206
BI-D1870 + Olaparib; first compound 0.04 µM
  relative viability: 0.36
BI-D1870 + Olaparib; first compound 0.1265 µM
  relative viability: 0.363
BI-D1870 + Olaparib; first compound 0.4 µM
  relative viability: 0.369
BI-D1870 + Olaparib; first compound 1.265 µM
  relative viability: 0.374
BI-D1870 + Olaparib; first compound 4 µM
  relative viability: 0.204
Zebularine + Crizotinib; first compound 1 µM
  relative viability: 0.666
Zebularine + Crizotinib; first compound 3.162 µM
  relative viability: 0.489
Zebularine + Crizotinib; first compound 10 µM
  relative viability: 0.397
Zebularine + Crizotinib; first compound 31.62 µM
  relative viability: 0.374
Zebularine + Crizotinib; first compound 100 µM
  relative viability: 0.343
